# Source: publication PMC7939570, “Discovery of potent histone deacetylase inhibitors with modified phenanthridine caps” (Journal of Enzyme Inhibition and Medicinal Chemistry, 2021)
# Assays:
# [1] = system: xenograft nude mice model; design: method as in PMID 31058081; conditions: in vivo; cited from earlier work
# [2] = system: U266 cells; assay: MTT antiproliferative assay, U266 cells; conditions: Homo sapiens, U-266, 48 h, read-out: U266 antiproliferative IC50
# [3] = system: MCF-7 cells; assay: MTT antiproliferative assay, MCF-7 cells; conditions: Homo sapiens, MCF7, 48 h, read-out: MCF-7 antiproliferative IC50
# [4] = system: U937 cells; assay: MTT antiproliferative assay, U937 cells; conditions: Homo sapiens; for IC50: U-937, 48 h, read-out: U937 antiproliferative IC50; for inhibition at 1 µM: U-937, read-out: U937 percentage inhibitory rate, 1 µM, U937 cells, MTT, mean of three experiments
# [5] = system: Hela nucleus extract containing a mixture of HDAC isoforms; assay: HDAC enzyme inhibitory assay with Hela nucleus extract; assay type: biochemical; conditions: 1 µM, mean of three experiments
# Protocol: The HDAC enzyme inhibitory activities of synthesised compounds were investigated by utilising Hela nucleus extract containing a mixture of HDAC isoforms. Percentage inhibitory rate was used to determine the activity of tested compounds (Tables 1 and 2). The Fa series compounds were firstly synthesised for the activity screening. […] To investigate whether aromatic linker could improve the inhibitory activities, structural modifications were performed on current molecules.
# [6] = system: HEPG2 cells; assay: MTT antiproliferative assay, HEPG2 cells; conditions: Homo sapiens, HepG2, 48 h, read-out: HEPG2 antiproliferative IC50
# [7] = system: K562 cells; assay: MTT antiproliferative assay, K562 cells; conditions: Homo sapiens, K562, 48 h, read-out: K562 antiproliferative IC50
# [8] = system: MCF-7 cells; assay: Cell cycle assay (PI, flow cytometry); conditions: 24 h
# Protocol: After staining, the cell cycle distribution was determined by flow cytometry within 24 h.
# [9] = system: MCF-7 cells; assay: Cell apoptosis assay (Annexin V-FITC/PI, flow cytometry); conditions: 24 h, control 9.16%
# Protocol: After incubating for 15 min, add 10 µL of PI to each sample and mix gently, and incubate for 5 min at 2–8 °C under dark conditions, and detect with a flow cytometer.
# [10] = target: HDAC1 (Homo sapiens, UniProt Q13547); assay: HDAC isoform inhibitory assay, HDAC1
# Sequence of HDAC1 (Q13547 whole entry, canonical isoform): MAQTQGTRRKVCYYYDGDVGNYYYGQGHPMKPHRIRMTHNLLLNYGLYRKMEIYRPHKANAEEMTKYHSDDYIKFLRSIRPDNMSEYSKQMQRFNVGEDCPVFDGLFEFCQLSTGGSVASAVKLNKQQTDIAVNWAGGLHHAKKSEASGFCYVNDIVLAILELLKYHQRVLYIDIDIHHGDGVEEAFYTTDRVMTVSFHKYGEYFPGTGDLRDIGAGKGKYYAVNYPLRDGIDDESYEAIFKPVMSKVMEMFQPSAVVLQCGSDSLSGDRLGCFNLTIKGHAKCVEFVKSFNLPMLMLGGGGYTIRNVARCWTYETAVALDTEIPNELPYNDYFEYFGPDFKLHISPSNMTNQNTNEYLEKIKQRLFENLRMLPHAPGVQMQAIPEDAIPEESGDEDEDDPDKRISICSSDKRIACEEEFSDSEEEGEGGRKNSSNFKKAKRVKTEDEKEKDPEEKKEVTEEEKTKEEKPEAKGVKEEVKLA
# Protocol: (§1) All HDAC enzymes were purchased from BPS Bioscience. In short, 60 μL of recombinant HDAC enzyme solution was mixed with various concentrations of test compound (40 μL), and then incubated at 37 °C for 30 min. The reaction was terminated by adding 100 μL of imaging agent containing trypsin and trichostatin A (TSA). After standing for 20 min, the fluorescence intensity was measured at the excitation and emission wavelengths of 360 and 460 nm with a microplate reader. The inhibition rate was calculated from the fluorescence intensity readings of the test wells relative to the control wells, and the IC50 curve and value were determined by GraphPad Prism 6.0 software.
# [11] = target: T1, HDAC8 (Homo sapiens, UniProt Q9BY41); assay: HDAC isoform inhibitory assay, HDAC8
# T1 sequence (Q9BY41 1-377): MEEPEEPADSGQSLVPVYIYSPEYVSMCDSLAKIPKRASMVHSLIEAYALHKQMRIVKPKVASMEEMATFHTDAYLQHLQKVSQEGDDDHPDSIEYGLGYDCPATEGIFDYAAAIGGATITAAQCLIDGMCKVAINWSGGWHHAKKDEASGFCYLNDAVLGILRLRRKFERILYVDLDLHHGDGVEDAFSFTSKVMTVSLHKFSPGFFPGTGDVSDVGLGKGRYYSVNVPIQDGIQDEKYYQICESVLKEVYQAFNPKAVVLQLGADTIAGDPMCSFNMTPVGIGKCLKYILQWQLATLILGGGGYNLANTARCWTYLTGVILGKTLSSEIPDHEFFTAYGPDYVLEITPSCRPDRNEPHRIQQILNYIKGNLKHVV
# Protocol: as §1
# [12] = target: HDAC2 (Homo sapiens, UniProt Q92769); assay: HDAC isoform inhibitory assay, HDAC2
# Sequence of HDAC2 (Q92769 whole entry, canonical isoform): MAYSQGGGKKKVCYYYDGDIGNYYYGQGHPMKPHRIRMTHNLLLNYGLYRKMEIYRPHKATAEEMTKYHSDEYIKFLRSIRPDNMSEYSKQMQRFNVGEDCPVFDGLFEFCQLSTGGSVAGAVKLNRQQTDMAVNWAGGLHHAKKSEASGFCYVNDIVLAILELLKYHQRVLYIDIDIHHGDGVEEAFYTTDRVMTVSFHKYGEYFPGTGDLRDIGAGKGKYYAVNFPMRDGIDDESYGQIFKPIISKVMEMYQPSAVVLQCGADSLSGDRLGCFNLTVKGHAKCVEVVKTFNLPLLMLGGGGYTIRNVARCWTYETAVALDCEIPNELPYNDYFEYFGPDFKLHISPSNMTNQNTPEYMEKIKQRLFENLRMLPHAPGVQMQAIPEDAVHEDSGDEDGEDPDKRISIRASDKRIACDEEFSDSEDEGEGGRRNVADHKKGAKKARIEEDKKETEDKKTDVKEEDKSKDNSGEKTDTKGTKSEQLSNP
# Protocol: as §1
# [13] = target: HDAC3 (Homo sapiens, UniProt O15379); assay: HDAC isoform inhibitory assay, HDAC3
# Sequence of HDAC3 (O15379 whole entry, canonical isoform): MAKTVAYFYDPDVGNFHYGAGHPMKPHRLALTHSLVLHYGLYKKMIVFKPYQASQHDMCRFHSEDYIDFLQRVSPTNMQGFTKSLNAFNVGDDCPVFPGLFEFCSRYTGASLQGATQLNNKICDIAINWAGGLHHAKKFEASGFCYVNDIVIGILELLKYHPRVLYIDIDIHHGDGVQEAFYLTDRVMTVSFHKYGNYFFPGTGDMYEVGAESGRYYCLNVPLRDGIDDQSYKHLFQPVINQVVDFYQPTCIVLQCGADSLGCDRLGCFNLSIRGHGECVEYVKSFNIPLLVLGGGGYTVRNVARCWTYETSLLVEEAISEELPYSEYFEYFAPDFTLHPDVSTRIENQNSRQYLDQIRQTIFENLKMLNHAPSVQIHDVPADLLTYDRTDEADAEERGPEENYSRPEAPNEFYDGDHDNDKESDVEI
# Sequence of HDAC3 (Q9Y618 395-489 partner limits assumed): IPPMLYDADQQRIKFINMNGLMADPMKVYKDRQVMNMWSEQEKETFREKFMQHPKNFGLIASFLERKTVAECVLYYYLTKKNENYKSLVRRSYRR
# Protocol: as §1
# [14] = target: T2, HDAC6 (Homo sapiens, UniProt Q9UBN7); assay: HDAC isoform inhibitory assay, HDAC6
# T2 sequence (Q9UBN7 1-1215): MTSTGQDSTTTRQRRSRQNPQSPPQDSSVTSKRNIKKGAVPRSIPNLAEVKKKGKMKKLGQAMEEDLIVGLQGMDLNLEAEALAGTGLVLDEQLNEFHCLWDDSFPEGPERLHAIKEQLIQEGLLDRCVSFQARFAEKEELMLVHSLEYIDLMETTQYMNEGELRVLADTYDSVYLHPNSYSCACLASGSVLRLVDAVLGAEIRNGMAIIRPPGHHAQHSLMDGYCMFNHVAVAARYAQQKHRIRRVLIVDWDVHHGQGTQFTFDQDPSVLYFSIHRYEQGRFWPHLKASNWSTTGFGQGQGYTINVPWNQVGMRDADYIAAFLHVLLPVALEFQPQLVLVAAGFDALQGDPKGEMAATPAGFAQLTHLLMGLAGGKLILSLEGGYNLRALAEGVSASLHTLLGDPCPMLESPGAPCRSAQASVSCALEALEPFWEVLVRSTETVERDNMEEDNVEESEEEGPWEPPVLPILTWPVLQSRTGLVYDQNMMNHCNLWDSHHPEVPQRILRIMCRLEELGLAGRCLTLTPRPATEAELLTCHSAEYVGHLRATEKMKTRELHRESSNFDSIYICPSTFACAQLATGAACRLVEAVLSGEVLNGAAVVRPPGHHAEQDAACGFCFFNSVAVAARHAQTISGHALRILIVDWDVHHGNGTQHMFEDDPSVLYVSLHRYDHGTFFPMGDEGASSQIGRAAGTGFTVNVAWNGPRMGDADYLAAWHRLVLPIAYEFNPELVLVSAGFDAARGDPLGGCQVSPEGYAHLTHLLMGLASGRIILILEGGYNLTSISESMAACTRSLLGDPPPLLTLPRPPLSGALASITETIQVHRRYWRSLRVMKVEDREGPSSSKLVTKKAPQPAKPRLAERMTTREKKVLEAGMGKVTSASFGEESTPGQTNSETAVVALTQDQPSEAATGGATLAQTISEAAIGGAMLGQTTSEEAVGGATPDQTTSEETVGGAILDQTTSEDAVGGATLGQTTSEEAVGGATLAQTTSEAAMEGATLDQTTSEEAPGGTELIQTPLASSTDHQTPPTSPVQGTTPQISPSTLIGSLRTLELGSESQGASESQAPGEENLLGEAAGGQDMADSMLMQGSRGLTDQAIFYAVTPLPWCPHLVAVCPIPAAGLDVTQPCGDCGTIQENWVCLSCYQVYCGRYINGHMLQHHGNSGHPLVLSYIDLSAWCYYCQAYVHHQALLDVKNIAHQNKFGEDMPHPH
# Protocol: as §1
IC50 [2] [nM],IC50 [3] [nM],IC50 [4] [nM],HDACs percentage inhibitory rate [5] [%],IC50 [6] [nM],IC50 [7] [nM],SMILES,inhibition at 1 µM [4] [%],further results
–,–,–,–,–,–,ClC(Cl)(Cl)c1nc2cc3c(cc2c2cc4c(cc12)OCO4)OCO3 [Compound 8a],–,hepatotoxicity [1]: obvious hepatotoxicity
100 ± 20,530 ± 90,630 ± 20,53.90 ± 1.82,14900 ± 780,470 ± 30,"CCc1ccc(C(=O)Nc2cc3c(cc2-c2ccc(C(=O)NCc4ccc(C(=O)NO)cc4)cc2)OCO3)cc1 [Fb-3, 4-({4-[6–(4-Ethyl-benzoylamino)-benzo[1,3]dioxol-5-yl]-benzoylamino}-methyl)-N-Hydroxy-benzamide]",96.05 ± 0.01,–
140 ± 60,–,–,–,–,–,"O=C(CCCCCCC(=O)Nc1ccccc1)NO [SAHA, Vorinostat, reference compound]",–,cell percentage at G2/M phase ([8]; 1 µM): 15.39%; cell percentage at G2/M phase ([8]; 3 µM): 20.75%; cell percentage at G2/M phase ([8]; 9 µM): 38.48%; percentage of apoptotic cells ([9]; 1 µM): 11.38%; percentage of apoptotic cells ([9]; 3 µM): 12.30%; percentage of apoptotic cells ([9]; 9 µM): 19.51%
90 ± 10,940 ± 20,920 ± 90,52.30 ± 2.26,17900 ± 1040,1190 ± 60,"COc1ccc(C(=O)Nc2cc3c(cc2-c2ccc(C(=O)NCc4ccc(C(=O)NO)cc4)cc2)OCO3)cc1 [Fb-2, 4-({4-[6–(4-Methoxy-benzoylamino)-benzo[1,3]dioxol-5-yl]-benzoylamino}-methyl)-N-Hydroxy-benzamide]",94.46 ± 0.41,–
90 ± 10,320 ± 40,340 ± 60,66.54 ± 1.47,17400 ± 630,870 ± 10,"O=C(NO)c1ccc(CNC(=O)c2ccc(-c3cc4c(cc3NC(=O)c3ccccc3F)OCO4)cc2)cc1 [Fb-4, 4-({4-[6–(2-Fluoro-benzoylamino)-benzo[1,3]dioxol-5-yl]-benzoylamino}-methyl)-N-Hydroxy-benzamide]",95.9 ± 1.09,IC50 [10]: 12.1 ± 2.5 nM; IC50 [11]: 304 ± 32.6 nM; cell percentage at G2/M phase ([8]; 1 µM): 17.46%; cell percentage at G2/M phase ([8]; 3 µM): 24.81%; cell percentage at G2/M phase ([8]; 9 µM): 41.71%; IC50 [12]: 21.5 ± 4.5 nM; IC50 [13]: 11 ± 2.8 nM; IC50 [14]: 8.6 ± 1.3 nM; percentage of apoptotic cells ([9]; 1 µM): 16.99%; percentage of apoptotic cells ([9]; 3 µM): 20.07%; percentage of apoptotic cells ([9]; 9 µM): 21.19%
–,–,–,9.22 ± 2.28,–,–,"O=C(CCCNC(=O)c1ccc(-c2cc3c(cc2NC(=O)c2ccc(F)cc2)OCO3)cc1)NO [Fa-3, 4-{4-[6-(4-Fluoro-benzoylamino)-benzo[1,3]dioxol-5-yl]-benzoylamino}-N-Hydroxy-butyramide]",19.4 ± 1.44,–
–,–,–,24.43 ± 2.90,–,–,"O=C(CCCNC(=O)c1ccc(-c2cc3c(cc2NC(=O)c2ccc(F)c(Cl)c2)OCO3)cc1)NO [Fa-19, 4-{4-[6–(3-Chloro-4-fluoro-benzoylamino)-benzo[1,3]dioxol-5-yl]-benzoylamino}-N-Hydroxy-butyramide]",15.8 ± 2.29,–
–,–,–,48.27 ± 0.62,–,–,"O=C(NO)c1ccc(CNC(=O)c2ccc(-c3cc4c(cc3NC(=O)c3ccc(F)cc3)OCO4)cc2)cc1 [Fb-11, 4-({4-[6–(4-Fluoro-benzoylamino)-benzo[1,3]dioxol-5-yl]-benzoylamino}-methyl)-N-Hydroxy-benzamide]",59.2 ± 6.95,–
